Experimental findings from patent US9668481B2, “Triazole derivatives” (priority 2013, dated 2017) are described below.

Like-named read-outs stand apart in the source and are kept apart here. Marks after values point to notes of the source that are not given here.

One data set has as its system Sphaerotheca fuliginea. Description: In vivo preventive test on Sphaerotheca fuliginea (powdery mildew on cucurbits). As to conditions: gherkin plants, preventive spray, evaluated 15 days after inoculation. On the procedure:
The young plants of gherkin are treated by spraying the active ingredient prepared as described above. Control plants are treated only with an aqueous solution of acetone/Dimethyl sulfoxide/Tween®. After 24 hours, the plants are contaminated by spraying the leaves with an aqueous suspension of Sphaerotheca fuliginea spores.

A further data set deals with Uromyces appendiculatus. Description: In vivo preventive test on Uromyces appendiculatus (bean rust). As to conditions: bean plants, preventive spray, evaluated 11 days after inoculation. On the procedure: The young plants of bean are treated by spraying the active ingredient prepared as described above. Control plants are treated only with an aqueous solution of acetone/Dimethyl sulfoxide/Tween®. After 24 hours, the plants are contaminated by spraying the leaves with an aqueous suspension of Uromyces appendiculatus spores.

The next data set relates to Puccinia recondita. Description: In vivo preventive test on Puccinia recondita (brown rust on wheat). The conditions noted are these: 500 ppm of active ingredient; wheat plants, preventive spray; evaluated 11 days after inoculation. The protocol: The young plants of wheat are treated by spraying the active ingredient prepared as described above. Control plants are treated only with an aqueous solution of acetone/Dimethyl sulfoxide/Tween®. After 24 hours, the plants are contaminated by spraying the leaves with an aqueous suspension of Puccinia recondita spores.

In the next data set the test system is Pyrenophora teres. Briefly: In vivo preventive test on Pyrenophora teres (net blotch on barley). As to conditions: 500 ppm of active ingredient; barley plants, preventive spray; evaluated 14 days after inoculation. On the procedure: The young plants of barley are treated by spraying the active ingredient prepared as described above. Control plants are treated only with an aqueous solution of acetone/Dimethyl sulfoxide/Tween®. After 24 hours, the plants are contaminated by spraying the leaves with an aqueous suspension of Pyrenophora teres spores.

The test system of a further data set is Septoria tritici. Description: In vivo preventive test on Septoria tritici (leaf spot on wheat). The conditions noted are these: 500 ppm of active ingredient; wheat plants, preventive spray; evaluated 24 days after inoculation. On the procedure: The young plants of wheat are treated by spraying the active ingredient prepared as described above. Control plants are treated only with an aqueous solution of acetone/Dimethyl sulfoxide/Tween®. After 24 hours, the plants are contaminated by spraying the leaves with an aqueous suspension of Septoria tritici spores.

The subject of the next data set is Botrytis cinerea. Description: In vivo preventive test on Botrytis cinerea (grey mould). The conditions noted are these: 100 ppm of active ingredient; gherkin plants, preventive spray; evaluated 4 to 5 days after inoculation. The protocol:
The young plants of gherkin are treated by spraying the active ingredient prepared as described above. Control plants are treated only with an aqueous solution of acetone/Dimethyl sulfoxide/Tween®. After 24 hours, the plants are contaminated by spraying the leaves with an aqueous suspension of Botrytis cinerea spores. The contaminated gherkin plants are incubated for 4 to 5 days at 17° C. and at 90% relative humidity.

[1] abbreviates: method [a]: LC-MS at pH 2.7, 0.1% formic acid in water / acetonitrile gradient.
The mark [2] stands for this setting: method [b]: LC-MS at pH 7.8, 0.001 molar ammonium hydrogen carbonate in water / acetonitrile gradient.

By LogP is commonly meant a log measure of how a compound divides between an organic and an aqueous phase. As to `CC(C)(C)C(O)(Cc1ccnc2ccccc12)Cn1cncn1` (centres unmarked) [Example I-10], the Eff. % came out at 97% in the data set on Sphaerotheca fuliginea (100 ppm of active ingredient) and 85% in the data set on Uromyces appendiculatus (100 ppm of active ingredient). Further, under “pH 2.7”, the LogP is 1.17^[a].
As to `CC(C)(C)C1(Cc2ccncc2F)CO1` (centres unmarked) [XII-7], under setting [1], the LogP is 2.31^[a].
The same measure, in the same setting: next, `CCCC(C)(C)C1(Cc2ccncc2Cl)CO1` (centres unmarked) [XII-23]: 2.03^[a].
Take `COC(C)(C)C(O)(Cc1ccncc1Cl)Cn1cncn1` (centres unmarked) [Example I-26]: the Eff. % with Puccinia recondita came out at 89%; in the data set with Pyrenophora teres it was 71%; in the data set with Septoria tritici it was 97%; in the data set on Sphaerotheca fuliginea (500 ppm of active ingredient), 100%; in the data set with Uromyces appendiculatus (500 ppm of active ingredient), 100%. Where the note is “pH 2.7”, the LogP is 1.48^[a].
Take `CC(C)(C)C(O)(Cc1nccnc1Cl)Cn1cncn1` (centres unmarked) [Example I-18]: the lipophilicity (LogP) (pH 2.7) is 2.01^[a].
Turning to `CCOC(C)(C)C(O)(Cc1ccncc1Cl)Cn1cncn1` (centres unmarked) [Example I-32], the Eff. % in the data set on Puccinia recondita was found to be 83%; with Sphaerotheca fuliginea (500 ppm of active ingredient), 98%; in the data set with Uromyces appendiculatus (500 ppm of active ingredient) it was 99%. Moreover, the LogP turned out to be 1.90 (pH 2.7) and 2.04 (pH 7.8).
For `CC(C)(C)C(O)(Cc1cc(Cl)ncc1F)Cn1cncn1` (centres unmarked) [Example I-16], the Eff. % in the data set on Sphaerotheca fuliginea (100 ppm of active ingredient) is 100%; in the data set on Uromyces appendiculatus (100 ppm of active ingredient), 84%. Besides, under “pH 2.7”, the log partition coefficient (LogP) is 2.16^[a].
For the compound `CC(C)(C)C(O)(Cc1cnccn1)Cn1cncn1` (centres unmarked) [Example I-21], the LogP (pH 2.7) is 1.39^[a].
For `CC(C)(C)C(O)(Cc1nc(Cl)ccc1Cl)Cn1cncn1` (centres unmarked) [Example I-33], for the setting “pH 2.7”, the LogP was 2.82^[a].
Turning to `CCC(C)(C)C(O)(Cc1ccnc(Cl)c1)Cn1cncn1` (centres unmarked) [Example I-14], the Eff. % is 87% in the data set with Botrytis cinerea and 100% with Sphaerotheca fuliginea (100 ppm of active ingredient). Besides, the lipophilicity (LogP) (pH 2.7) is 2.27^[a].
As for `CC(C)(C)C(=O)Cc1ncc(Cl)cc1Cl` [Example V-1], the LogP under setting [1] was 3.33^[a].
On to `Cc1cccc(CC(O)(Cn2cncn2)C(C)(C)C)n1` (centres unmarked) [Example I-23], for which the LogP (pH 2.7) was 0.63^[a].
For `CCC(C)(C)C1(Cc2ccncc2Cl)CO1` (centres unmarked) [XII-17], the LogP under setting [1] is 3.33^[a].
On the same count and under the same terms, next, `CC(C)(C)C(=O)Cc1cnc2ccccc2c1` [Example V-2]: 1.60^[a]; `CC(C)(C)C1(Cc2c(Cl)cncc2Cl)CO1` (centres unmarked) [XII-21]: 3.89^[a].
For the compound `CC(C)(C)C(O)(Cc1cncc(Cl)n1)Cn1cncn1` (centres unmarked) [Example I-17], the LogP (pH 2.7) was 1.89^[a].
On to `CC(C)C(C)(C)C1(Cc2ccncc2F)CO1` (centres unmarked) [XII-9], for which the log partition coefficient (LogP) under setting [1] was 3.19^[a].
Compound `CC(C)(C)C(O)(Cc1cc(Cl)nc(Cl)c1)Cn1cncn1` (centres unmarked) [Example I-9] returned an Eff. % in the data set on Sphaerotheca fuliginea (100 ppm of active ingredient) of 97%. For the same compound, the LogP (pH 2.7) is 2.64^[a].
`Cc1ncc(CC(O)(Cn2cncn2)C(C)(C)C)nc1Cl` (centres unmarked) [Example I-19]: for the setting “pH 2.7”, the LogP is 2.10^[a].
In the case of `CCC(C)(CC)C(=O)Cc1ccncc1Cl` [Example V-5], under setting [1], the lipophilicity (LogP) is 3.04^[a].
As to `CCC(C)(C)C1(Cc2cc(F)ncc2Cl)CO1` (centres unmarked) [XII-19], the LogP under setting [1] was 4.17^[a].
As to `CCC(C)(C)C1(Cc2c(Cl)cncc2Cl)CO1` (centres unmarked) [XII-22], the LogP under setting [1] was 4.41^[a].
On to `CC(C)(C)C(O)(Cc1cnc2ccccc2c1)Cn1cncn1` (centres unmarked) [Example I-1], for which the lipophilicity (LogP) (pH 2.7) was 1.18^[a].
For `CC(C)C(C)(C)C1(Cc2ccnc(Cl)c2)CO1` (centres unmarked) [XII-11], the lipophilicity (LogP) under setting [1] is 3.94^[a].
The same measure, in the same setting: with `CC(C)C(C)(C)C1(Cc2cc(Cl)ncc2F)CO1` (centres unmarked) [XII-13] the figure was 4.34^[a].
`CC(C)(C)C(=O)Cc1ccncc1` [Example V-8]: the LogP reads like this: under setting [1], 0.35; under setting [2], 1.75.
In the data set with Sphaerotheca fuliginea (100 ppm of active ingredient), `CC(C)(C)C(O)(Cc1ccc2ccccc2n1)Cn1cncn1` (centres unmarked) [Example I-8] yielded an Eff. % of 79%. Further, the log partition coefficient (LogP) under setting [1] was 1.51^[a].
Take `CC(C)(C)C1(Cc2ncc(Cl)cc2Cl)CO1` (centres unmarked) [XII-1]: the LogP under setting [1] is 4.06^[a].
In the case of `CC(C)(C)C(O)(Cc1cc(Cl)ccn1)Cn1cncn1` (centres unmarked) [Example I-22], under “pH 2.7”, the log partition coefficient (LogP) was 1.87^[a].
As for `CC(C)C(C)(C)C(=O)Cc1ccncc1Cl` [Example V-6], under setting [1], the lipophilicity (LogP) was 3.00^[a].
On to `CC(C)CCC(O)(Cc1ccncc1Cl)Cn1cncn1` (centres unmarked) [Example I-31], for which the Eff. % was determined as 89% in the data set on Puccinia recondita, 100% in the data set with Septoria tritici, 100% in the data set with Sphaerotheca fuliginea (500 ppm of active ingredient) and 96% in the data set with Uromyces appendiculatus (500 ppm of active ingredient). Further, the LogP (pH 2.7) was 2.00^[a].
In the case of `CC(C)(C)C(O)(Cc1ccc(Cl)nc1)Cn1cncn1` (centres unmarked) [Example I-2], the Eff. % in the data set on Sphaerotheca fuliginea (500 ppm of active ingredient) is listed as 98%; with Uromyces appendiculatus (500 ppm of active ingredient) it was 77%. In addition, the log partition coefficient (LogP) by setting is: (pH 2.7) 1.98^[b]; 1.98^[a]; (pH 7.8) 1.98^[b]; 1.98^[a].
`CC(C)(C)C(O)(Cc1cncc(Oc2ccc(Cl)cc2)n1)Cn1cncn1` (centres unmarked) [Example I-25] had an Eff. % in the data set on Puccinia recondita of 71%. Also, the lipophilicity (LogP) (pH 2.7) is 2.98^[a].
With `CCC(C)(C)C1(Cc2cc(Cl)ncc2F)CO1` (centres unmarked) [XII-14], the LogP under setting [1] is 3.89^[a].
Take `CC(C)(C)C(O)(Cc1cc(Cl)cc(Cl)n1)Cn1cncn1` (centres unmarked) [Example I-11]: for the setting “pH 2.7”, the LogP is 2.86^[a].
For the compound `CC(C)(C)C1(Cc2cc(Cl)ncc2F)CO1` (centres unmarked) [XII-15], the LogP under setting [1] is 3.42^[a].
Same read-out and setting: next, `CC(C)(C)C1(Cc2ccnc(Cl)c2F)CO1` (centres unmarked) [XII-20]: 3.37^[a]; `CC(C)(C)C1(Cc2ccnc(Cl)c2)CO1` (centres unmarked) [XII-12]: 3.06^[a]; `CCC(C)(C)C1(Cc2ccnc(Cl)c2)CO1` (centres unmarked) [XII-10]: 3.51^[a].
As to `Cc1cnc(CC(O)(Cn2cncn2)C(C)(C)C)c(Cl)n1` (centres unmarked) [Example I-20], the LogP (pH 2.7) was 2.21^[a].
With `CC(C)(C)C(O)(Cc1ccc(Cl)c(Cl)n1)Cn1cncn1` (centres unmarked) [Example I-12], the lipophilicity (LogP) (pH 2.7) was 2.78^[a].
For the compound `CC(C)(C)C(=O)Cc1ccc(Cl)nc1` [Example V-3], the lipophilicity (LogP) under setting [1] is 2.47^[a].
`CC(C)(C)C(O)(Cc1cccc(Cl)n1)Cn1cncn1` (centres unmarked) [Example I-13]: the log partition coefficient (LogP) (pH 2.7) was 2.30^[a].
As to `CCOC(=O)OC(Cc1cccnc1Cl)(Cn1cncn1)C(C)(C)C` (centres unmarked) [Example I-24], the Eff. % with Puccinia recondita is recorded as 86%; in the data set with Pyrenophora teres it was 75%; in the data set with Septoria tritici, 100%; in the data set with Sphaerotheca fuliginea (500 ppm of active ingredient) it was 100%; in the data set on Uromyces appendiculatus (500 ppm of active ingredient), 97%. The log partition coefficient (LogP) by setting is: (pH 2.7) 2.67; (pH 7.8) 2.56.
`CC(C)(C)C1(Cc2cnc3ccccc3c2)CO1` (centres unmarked) [XII-2]: the lipophilicity (LogP) under setting [1] was 1.86^[a].
As for `CC(C)(C)C(O)(Cc1ccnc(Cl)c1)Cn1cncn1` (centres unmarked) [Example I-15], the results for the Eff. % in the data set on Sphaerotheca fuliginea (100 ppm of active ingredient) and in the data set with Uromyces appendiculatus (100 ppm of active ingredient) were 100% and 91%, respectively. Under “pH 2.7”, the log partition coefficient (LogP) was 1.93^[a].
Regarding `CC(C)C(C)(C)C1(Cc2ccncc2Cl)CO1` (centres unmarked) [XII-16], the LogP under setting [1] was 3.75^[a].
Same read-out and setting: next, `CC(C)(C)C1(Cc2cc(F)ncc2Cl)CO1` (centres unmarked) [XII-18]: 3.65^[a].
On the same count and under the same terms, with `CCC(C)(C)C1(Cc2ccncc2F)CO1` (centres unmarked) [XII-8] the figure was 2.76^[a].
As for `CC(C)(C)C(O)(Cc1c(Cl)cncc1Cl)Cn1cncn1` (centres unmarked) [Example I-28], the log partition coefficient (LogP) (pH 2.7) was 2.34^[a].
Turning to `CC(C)(C)C(=O)Cc1cccnc1` [Example V-7], the lipophilicity (LogP) is recorded as 0.41 under setting [1] and 1.71 under setting [2].
